According to patent publication US10195201B2, “Heteroaryl-pyrimidinone compounds as PDE2 inhibitors” (Merck Sharp & Dohme Corp., priority 2015, dated 2019):
Like-named read-outs stand apart in the source and are kept apart here.

What was measured:
human PDE2A1 = human PDE2A1 (Homo sapiens (Human), UniProt O00408); experiment: PDE2 fluorescence polarization (IMAP FP) inhibition assay, human enzyme; format: biochemical
Protocol: (§1) The activity of the compounds in accordance with the present invention as PDE2 inhibitors may be readily determined using a fluorescence polarization (FP) methodology (Huang, W., et al., J. Biomol Screen, 2002, 7: 215).
Selectivity for PDE2, as compared to other PDE families, was assessed using the IMAPR technology. Human PDE10A2 enzyme was prepared from cytosolic fractions of transiently transfected HEK cells. All other PDE's were GST Tag human enzyme expressed in insect cells and were obtained from BPS Bioscience (San Diego, Calif.): PDE1A (Cat#60010), human PDE2A1(Cat#60020), PDE3A (Cat#60030), PDE4A1A (Cat#60040), PDE5A1 (Cat#60050), PDE6C (Cat#60060), PDE7A (Cat#60070), PDE8A1 (Cat#60080), PDE9A2 (Cat#60090), PDE11A4 (Cat#60110).
Assays for PDE 1 through 11 were performed in parallel at room temperature in 384-well microtiter plates with an incubation volume of 20.2 μL. Solutions of test compounds were prepared in DMSO and serially diluted with DMSO to yield 30 μL of each of ten solutions differing by 3-fold in concentration, at 32 serial dilutions per plate. […] A Labcyte POD 810 (Labcyte, Sunnyvale, Calif.) was used to dispense 200 nL from each well of the titration plate to make eleven copies of the assay plate for each titration, one copy for each PDE enzyme. A solution of each enzyme (dilution from aliquots, sufficient to produce 20% substrate conversion) and a separate solution of FAM-labeled cAMP or FAM-labeled cGMP from Molecular Devices (Sunnyvale, Calif., product # R7506 or cGMP#R7508), at a final concentration of 50 nM were made in the assay buffer (10 mM Tris HCl, pH 7.2, 10 mM MgCl2, 0.05% NaN3 0.01% Tween-20, and 1 mM DTT). Note that the substrate for PDE2 is 50 nM FAM cAMP containing 1000 nM of cGMP. The enzyme and the substrate were then added to the assay plates in two consecutive additions of 10 μL and then shaken to mix. The reaction was allowed to proceed at room temperature for 60 minutes. A binding solution was then made from the kit components, comprised of 80% Solution A, 20% Solution B and binding reagent at a volume of 1/600 the total binding solution. The enzymatic reaction was stopped by addition of 60 μL of the binding solution to each well of the assay plate. The plates were sealed and shaken for 10 seconds. The plates were incubated at room temperature for one hour, then the parallel and perpendicular fluorescence was measured using a Tecan Genios Pro plate reader (Tecan, Switzerland). The apparent inhibition constants for the compounds against all 11 PDE's was determined from the parallel and perpendicular fluorescent readings as described for PDE10 FP assay using the following apparent KM values for each enzyme and substrate combination: PDE1A (FAM cGMP) 70 nM, human PDE2A1 (FAM cAMP) 10,000 nM, PDE3A (FAM cAMP) 50 nM, PDE4A1A (FAM cAMP) 1500 nM, PDE5A1 (FAM cGMP) 400 nM, PDE6C (FAM cGMP) 700 nM, PDE7A (FAM cAMP) 150 nM, PDE8A1 (FAM cAMP) 50 nM, PDE9A2 (FAM cGMP) 60 nM, […] (FAM cAMP) 150 nM, PDE11A4 (FAM cAMP) 1000 nM. The intrinsic PDE2 inhibitory activity of a compound which may be used in accordance with the present invention may be determined by these assays. […]

Rhesus PDE2A3 = Rhesus PDE2A3 (Macaca mulatta, UniProt B3VTJ2); experiment: PDE2 fluorescence polarization (IMAP FP) inhibition assay, rhesus enzyme; format: biochemical, rhesus macaque
Protocol: as §1
In a typical experiment the PDE2 inhibitory activity of the compounds of the present invention was determined in accordance with the following experimental method. Rhesus PDE2A3 was amplified from rhesus macaque brain cDNA (Biochain Institute, Hayward, Calif.) using primers based on human PDE2A sequence (accession NM_002599.3) where the forward primer containing a Kozak consensus was 5′-[…]-3′ and the reverse primer was 5′-[…]-3′. Amplification with Easy-A High-Fidelity PCR cloning enzyme (Stratagene, La Jolla, Calif.) was 95° C. for 2 minutes followed by thirty three cycles of 95° C. for 40 seconds, 52° C. for 30 seconds, and 72° C. for 2 minutes 48 seconds. Final extension was 72° C. for 7 minutes. The PCR product was TA cloned into pcDNA3.3-TOPO (Invitrogen, Carlsbad, Calif.) according to standard protocol. A consensus sequence was developed from multiple clones and then deposited into GenBank (EU812167). AD293 cells (Stratagene, La Jolla, Calif.) with 70-80% confluency were transiently transfected with rhesus PDE2A3/pcDNA3.3-TOPO using Lipofectamine 2000 according to manufacturer specifications (Invitrogen, Carlsbad, Calif.). Cells were harvested 48 hours post-transfection and lysed by sonication (setting 3, 10×5 sec pulses) in a buffer containing 20 mM HEPES pH 7.4, 1 mM EDTA and Complete Protease Inhibitor Cocktail Tablets (Roche, Indianapolis, Ind.). Lysate was collected by centrifugation at 75,000×g for 20 minutes at 4° C. and supernatant utilized for evaluation of PDE2 activity. The fluorescence polarization assay for cyclic nucleotide phosphodiesterases was performed using an IMAP® FP kit supplied by Molecular Devices, Sunnyvale, Calif. (product # R8139). […] Assays were performed at room temperature in 384-well microtiter plates with an incubation volume of 20.2 μL. Solutions of test compounds were prepared in DMSO and serially diluted with DMSO to yield 8 μL of each of 10 solutions differing by 3-fold in concentration, at 32 serial dilutions per plate. […] 0% of inhibition is determined by using DMSO (1% final concentrations).
A Labcyte Echo 555 (Labcyte, Sunnyvale, Calif.) is used to dispense 200 nL from each well of the titration plate to the 384 well assay plate. Ten microliters of a solution of enzyme (1/2000 final dilution from aliquots; sufficient to produce 20% substrate conversion) was added to the assay plate. Next 10 uL of a separate solution of the substrate FAM-labeled cAMP (50 nM final concentration product # R7506 from Molecular Devices) and the activator cGMP (1 uM final concentration), prepared in the assay buffer (10 mM Tris HCl, pH 7.2, 10 mM MgCl2, 0.05% NaN3 0.01% Tween-20, and 1 mM DTT) was added to the assay plate and shaken to mix. The reaction is allowed to proceed at room temperature for 60 minutes. A binding solution is then made from the kit components, comprised of 80% Solution A, 20% Solution B and binding reagent at a volume of 1/600 the total binding solution. The enzymatic reaction is stopped by addition of 60 μL of the binding solution to each well of the assay plates and the plates are sealed and shaken for 30 seconds. The plate was incubated at room temperature for at least one hour prior to determining the fluorescence polarization (FP). The parallel and perpendicular fluorescence of each well of the plate was measured using a Tecan Genios Pro plate reader (Tecan, Switzerland) or Perkin Elmer EnVision™ plate reader (Waltham, Mass.). Fluorescence polarization (mP) was calculated from the parallel (S) and perpendicular (P) fluorescence of each sample well and the analogous values for the median control well, containing only substrate (So and Po), using the following equation: Polarization (mP)=1000*(S/So−P/Po)/(S/So+P/Po).

[1] = LabA, read-out: hPDE2 Ki (nM) LabA
[2] = LabB, read-out: hPDE2 Ki (nM) LabB
[3] = LabA, read-out: rhPDE2 Ki (nM) LabA
[4] = LabB, read-out: rhPDE2 Ki (nM) LabB

Rhesus PDE2A3, sequence (B3VTJ2 1-941): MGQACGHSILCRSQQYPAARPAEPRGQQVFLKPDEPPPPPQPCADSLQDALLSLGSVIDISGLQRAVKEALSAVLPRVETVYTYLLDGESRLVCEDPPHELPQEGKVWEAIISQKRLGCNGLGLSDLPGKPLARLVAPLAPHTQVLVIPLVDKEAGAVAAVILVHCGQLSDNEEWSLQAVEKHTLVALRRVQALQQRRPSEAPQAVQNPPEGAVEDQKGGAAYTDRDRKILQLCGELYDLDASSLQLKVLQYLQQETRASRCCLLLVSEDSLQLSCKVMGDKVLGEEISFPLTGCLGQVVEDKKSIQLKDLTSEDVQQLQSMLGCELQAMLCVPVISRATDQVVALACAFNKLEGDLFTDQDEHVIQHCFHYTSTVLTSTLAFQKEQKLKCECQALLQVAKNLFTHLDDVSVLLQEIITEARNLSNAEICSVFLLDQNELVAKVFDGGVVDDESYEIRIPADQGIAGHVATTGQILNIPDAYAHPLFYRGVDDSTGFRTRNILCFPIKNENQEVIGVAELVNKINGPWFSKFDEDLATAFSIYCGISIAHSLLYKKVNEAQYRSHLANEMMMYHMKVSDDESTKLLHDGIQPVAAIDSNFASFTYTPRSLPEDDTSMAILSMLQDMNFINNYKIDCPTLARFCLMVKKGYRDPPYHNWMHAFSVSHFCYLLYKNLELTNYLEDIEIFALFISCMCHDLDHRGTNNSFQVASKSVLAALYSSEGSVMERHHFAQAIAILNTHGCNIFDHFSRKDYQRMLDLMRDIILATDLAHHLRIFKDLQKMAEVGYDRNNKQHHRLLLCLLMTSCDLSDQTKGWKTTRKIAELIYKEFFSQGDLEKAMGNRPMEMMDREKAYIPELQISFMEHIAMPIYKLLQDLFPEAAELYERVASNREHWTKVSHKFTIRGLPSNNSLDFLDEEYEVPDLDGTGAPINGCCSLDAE
human PDE2A1, sequence (O00408 other isoform, or with tags, fused parts or gaps): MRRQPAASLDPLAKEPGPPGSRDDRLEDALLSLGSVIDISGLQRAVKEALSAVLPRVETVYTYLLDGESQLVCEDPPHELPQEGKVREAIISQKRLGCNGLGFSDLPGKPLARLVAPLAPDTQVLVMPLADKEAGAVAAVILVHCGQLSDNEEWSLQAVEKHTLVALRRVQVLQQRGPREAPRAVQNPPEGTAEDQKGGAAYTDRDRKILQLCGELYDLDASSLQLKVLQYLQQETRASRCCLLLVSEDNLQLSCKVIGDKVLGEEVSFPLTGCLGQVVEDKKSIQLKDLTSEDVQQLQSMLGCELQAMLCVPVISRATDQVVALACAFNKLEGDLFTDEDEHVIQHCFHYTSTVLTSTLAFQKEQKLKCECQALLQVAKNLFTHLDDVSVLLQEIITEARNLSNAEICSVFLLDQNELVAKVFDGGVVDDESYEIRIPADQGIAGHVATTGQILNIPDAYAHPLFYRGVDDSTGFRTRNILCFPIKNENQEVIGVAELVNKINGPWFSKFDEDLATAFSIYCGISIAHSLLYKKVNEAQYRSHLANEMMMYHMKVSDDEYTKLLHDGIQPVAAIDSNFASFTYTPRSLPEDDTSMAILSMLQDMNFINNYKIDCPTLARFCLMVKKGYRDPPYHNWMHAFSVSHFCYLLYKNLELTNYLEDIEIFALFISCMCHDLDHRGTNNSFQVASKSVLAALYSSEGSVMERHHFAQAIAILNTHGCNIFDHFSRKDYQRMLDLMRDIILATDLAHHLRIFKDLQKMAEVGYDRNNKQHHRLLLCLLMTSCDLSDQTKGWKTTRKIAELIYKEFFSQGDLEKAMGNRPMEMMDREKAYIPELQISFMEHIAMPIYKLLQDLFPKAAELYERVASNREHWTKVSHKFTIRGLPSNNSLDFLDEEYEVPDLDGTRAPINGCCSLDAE

## Cc1nc(-c2nnc([C@H](C)c3ccc(C(F)(F)F)cc3)s2)cc(=O)[nH]1 (single isomer, unassigned) [Example 6]
Human PDE2A1; [1]
  Ki: 6 nM
Human PDE2A1; [2]
  Ki: 12 nM
Rhesus PDE2A3; [3]
  Ki: 10 nM
Rhesus PDE2A3; [4]
  Ki: 13 nM

## Cc1nc(-c2nnc([C@H](C)c3ccc(C(F)(F)F)cc3F)s2)cc(=O)[nH]1 (single isomer, unassigned) [Example 5]
Human PDE2A1; [2]
  Ki: 18 nM
Rhesus PDE2A3; [4]
  Ki: 19 nM

## Cc1nc(-c2nnc([C@H](C)c3ccc(C(F)(F)F)cc3)s2)cc(=O)[nH]1 (single isomer, unassigned) [Example 7]
Human PDE2A1; [1]
  Ki: 13 nM
Human PDE2A1; [2]
  Ki: 62 nM
Rhesus PDE2A3; [3]
  Ki: 21 nM
Rhesus PDE2A3; [4]
  Ki: 57 nM

## Cc1nc(-c2cn(C(C)c3ccc(C(F)(F)F)cc3)cn2)cc(=O)[nH]1 (single isomer, unassigned) [Example 17, (R)- or (S)-2-methyl-6-(1-(1-(4-(trifluoro-methyl)phenyl)ethyl)-1H-imidazol-4-yl) pyrimidin-4 (3H)-one]
Human PDE2A1; [1]
  Ki: 76 nM
Rhesus PDE2A3; [3]
  Ki: 106 nM

## Cc1nc(-c2nnc([C@H](C)c3ccc(C(F)(F)F)cc3F)s2)cc(=O)[nH]1 (single isomer, unassigned) [Example 4]
Human PDE2A1; [2]
  Ki: 22 nM
Rhesus PDE2A3; [4]
  Ki: 20 nM

## COc1ccc(Cc2nc(-c3cn(C(C)c4ccc(C(F)(F)F)cc4F)cn3)cc(=O)[nH]2)cc1OC (single isomer, unassigned) [Example 19, (R)- or (S)-2-(3,4-dimethoxy-benzyl)-6-(1-(1-(2-fluoro-4-(trifluoromethyl)phenyl)ethyl)-1H-imidazol-4-yl)pyrimidin-4(3H)-one]
Human PDE2A1; [2]
  Ki: 0.4 nM
Rhesus PDE2A3; [3]
  Ki: 0.2 nM
Rhesus PDE2A3; [4]
  Ki: 0.4 nM

## Cc1nc(-c2ncc(C(C)c3ccc(C(F)(F)F)cc3)s2)cc(=O)[nH]1 (centres unmarked) [Example 1, 2-Methyl-6-(5-(1-(4-(trifluoromethyl)phenyl)ethyl)thiazol-2-yl)pyrimidin-4(3H)-one]
Human PDE2A1; [1]
  Ki: 60 nM
Rhesus PDE2A3; [3]
  Ki: 96 nM
Rhesus PDE2A3; [4]
  Ki: 481 nM

## Cc1nc(-c2ncc(C(C)c3ccc(C(F)(F)F)cc3)o2)cc(=O)[nH]1 (centres unmarked) [Example 8, 2-Methyl-6-(5-(1-(4-(trifluoromethyl)phenyl)ethyl)oxazol-2-yl)pyrimidin-4(3H)-one]
Human PDE2A1; [1]
  Ki: 403 nM
Rhesus PDE2A3; [3]
  Ki: 352 nM

## COc1ccc(Cc2nc(-c3cn(C(C)c4ccc(C(F)(F)F)cc4F)cn3)cc(=O)[nH]2)cc1OC (single isomer, unassigned) [Example 18, (R)- or (S)-2-(3,4-dimethoxy-benzyl)-6-(1-(1-(2-fluoro-4-(trifluoromethyl)phenyl)ethyl)-1H-imidazol-4-yl)pyrimidin-4(3H)-one]
Human PDE2A1; [1]
  Ki: 1.4 nM
Rhesus PDE2A3; [3]
  Ki: 2.3 nM

## Cc1nc(-c2cc(=O)[nH]c(C)n2)cc(C(C)c2ccc(C(F)(F)F)cc2)n1 (centres unmarked) [Example 48, 2,2′-dimethyl-6′-(1-(4-(trifluoromethyl)phenyl)ethyl)-[4,4′-bipyrimidin]-6(1H)-one]
Human PDE2A1; [1]
  Ki: 312 nM
Rhesus PDE2A3; [3]
  Ki: 516 nM
